We go through 17 compounds from patent US7696129B2, “Substituted aromatic amide derivative, intermediate thereof, agrohorticultural insecticide containing thereof and method for the use thereof” (Nihon Nohyaku Co., Ltd., priority 2001, dated 2010).

Common to all, as to type: in vivo
Data set [1] concerns Diamond Back Moth (Plutella xylostella). The data set is described as follows: Test Example 1: insecticidal effect on diamond back moth, immersion of Chinese cabbage seedling with eggs. Particulars: seedling with eggs immersed about 30 seconds, 25° C., six days after the immersion; for mortality at 50 ppm: Plutella xylostella, 144 h, read-out: Test Example 1 (insecticidal effect, mortality criterion); for Test Example 1 (insecticidal effect, mortality criterion): 50 ppm. The procedure, abridged:
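Chinese cabbage seedlings bearing 2-day-old moth eggs dipped about 30 s in compound at 50 ppm, air-dried, held at 25° C. Hatched larvae counted six days later to give mortality; triplicate groups of 10 insects.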

Data set [2] deals with Common Cutworm (Spodoptera litura). The data set is described as follows: Test Example 2: insecticidal effect on common cutworm, cabbage leaf immersion. Particulars: cabbage leaf immersed about 30 seconds, second-instar larvae, 25° C., eight days after the inoculation; for mortality at 50 ppm: Spodoptera litura, 192 h, read-out: Test Example 2 (insecticidal effect, mortality criterion); for Test Example 2 (insecticidal effect, mortality criterion): 50 ppm. Summed up:
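Cabbage leaf pieces dipped about 30 seconds in 50 ppm compound dilution, air-dried, then infested with second-instar larvae and kept at 25° C. Dead and alive counted eight days after inoculation to give mortality; triplicate groups of 10 insects.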

For data set [3], the system named is Smaller Tea Tortrix (Adxophyes sp.). The data set is described as follows: Test Example 3: insecticidal effect on smaller tea tortrix, tea leaf immersion. Particulars: 50 ppm, tea leaves immersed about 30 seconds, larvae, 25° C., humidity 70%, eight days after the inoculation. The procedure, abridged: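 Tea leaves dipped about 30 s in compound diluted to 50 ppm, air-dried, then infested with smaller tea tortrix larvae at 25°C and 70% humidity. Mortality counted 8 days post-inoculation and scored by a graded criterion; triplicate groups of 10 insects.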

Data set [4] has as its system Diamond Back Moth (Plutella xylostella). The experiment in a line: Test Example 4: controlling effect on diamond back moth with soil treatment (pricking-in hole treatment with granules). Particulars: 10 mgAI/plant, soil treatment at fix planting, about 50 eggs inoculated nine days after planting. The text has this:
Controlling Effect on Diamond Back Moth (Plutella xylostella) with Soil Treatment of […] The pricking-in hole treatment was done with the granules containing each compound listed in Tables 4 according to the formulation examples of the present invention, at the fix planting of […] (cultivar; YR Seitoku). Nine days after the fix planting, about 50 eggs of diamond back moth (Plutella xylostella) were innoculated, then the number of the parasitic insects of diamond back moth (Plutella xylostella) was counted on the specified days after the innoculation.

The term mortality denotes the percentage killed. With `CSCC(C)(C)NC(=O)c1c(I)cccc1C(=O)Nc1ccc(C(C(F)(F)F)C(F)(F)F)cc1C` [Compound No. 5-28, N^2-(1,1-dimethyl-2-methylthioethyl)-3-iodo-N^1-{2-methyl-4-[2,2,2-trifluoro-1-(trifluoromethyl)ethyl]phenyl}phthalamide], in data set [1], the mortality at 50 ppm came to 100%. Also, the mortality at 50 ppm in data set [2] turned out to be 100%. Further, the “Test Example 3 (insecticidal effect, mortality criterion)” value in data set [3] is “A (Mortality 100%)”. For the same compound, in data set [4], the “Number of the parasitic insects/three plants After 18 days” value is on record as 0 parasitic insects/three plants, the “Number of the parasitic insects/three plants After 25 days” value is 5 parasitic insects/three plants and the “Number of the parasitic insects/three plants After 32 days” value is 14 parasitic insects/three plants.

As to `CSCC(C)(C)NC(=O)c1c(I)cccc1C(=O)Nc1ccc(C(C(F)(F)F)C(F)(F)F)cc1C` [5-30], the “Test Example 1 (insecticidal effect, mortality criterion)” value in data set [1] is on record as “A (Mortality 100%)”. In addition, the “Test Example 2 (insecticidal effect, mortality criterion)” value in data set [2] is listed as “A (Mortality 100%)”. Besides, the “Test Example 3 (insecticidal effect, mortality criterion)” value in data set [3] is reported as “A (Mortality 100%)”. Also, in data set [4], the “Number of the parasitic insects/three plants After 18 days” value was 0 parasitic insects/three plants, the “Number of the parasitic insects/three plants After 25 days” value is reported as 3 parasitic insects/three plants and the “Number of the parasitic insects/three plants After 32 days” value was 22 parasitic insects/three plants.

In the case of `Cc1cc(C(C(F)(F)F)C(F)(F)F)ccc1NC(=O)c1cccc(I)c1C(=O)NC(C)(C)C[S+](C)[O-]` (stereo not drawn) [Compound No. 5-29, N^2-(1,1-dimethyl-2-methylsulfinylethyl)-3-iodo-N^1-[2-methyl-4-{2,2,2-trifluoro-1-(trifluoromethyl)ethyl}phenyl]phthalamide], the mortality at 50 ppm in data set [1] amounted to 100%. Besides, in data set [2], the mortality at 50 ppm is 100%. Moreover, in data set [3], the “Test Example 3 (insecticidal effect, mortality criterion)” value was “A (Mortality 100%)”. In data set [4], the “Number of the parasitic insects/three plants After 18 days” value is on record as 0 parasitic insects/three plants, the “Number of the parasitic insects/three plants After 25 days” value was 0 parasitic insects/three plants and the “Number of the parasitic insects/three plants After 32 days” value is given as 0 parasitic insects/three plants.

On to `CON=CC(C)(C)NC(=O)c1c(Cl)cccc1C(=O)Nc1ccc(C(C(F)(F)F)C(F)(F)F)cc1C` [5-18], for which the “Test Example 1 (insecticidal effect, mortality criterion)” value in data set [1] is on record as “A (Mortality 100%)”. For the same compound, the “Test Example 2 (insecticidal effect, mortality criterion)” value in data set [2] was “A (Mortality 100%)”. Also, the “Test Example 3 (insecticidal effect, mortality criterion)” value in data set [3] was “A (Mortality 100%)”.

As to `CSCC(C)(C)NC(=O)c1c(C(=O)Nc2ccc(C(C(F)(F)F)C(F)(F)F)cc2C)ccc(Cl)c1Cl` [5-45], the “Test Example 1 (insecticidal effect, mortality criterion)” value in data set [1] is on record as “A (Mortality 100%)”. For the same compound, the “Test Example 2 (insecticidal effect, mortality criterion)” value in data set [2] was “A (Mortality 100%)”. The “Test Example 3 (insecticidal effect, mortality criterion)” value in data set [3] was “A (Mortality 100%)”.

In the case of `CSCC(C)(C)NC(=O)c1c(I)cccc1C(=O)Nc1ccc(CC(F)(F)C(F)(F)C(F)(F)C(F)(F)C(F)(F)F)cc1CC(F)(F)C(F)(F)C(F)(F)C(F)(F)C(F)(F)F` [5-8], the “Test Example 1 (insecticidal effect, mortality criterion)” value in data set [1] was “A (Mortality 100%)”. Moreover, the “Test Example 2 (insecticidal effect, mortality criterion)” value in data set [2] was “A (Mortality 100%)”. The “Test Example 3 (insecticidal effect, mortality criterion)” value in data set [3] is on record as “A (Mortality 100%)”.

Turning to `CCc1cc(CC(F)(F)F)ccc1NC(=O)c1cccc(I)c1C(=O)NC(C)(C)CSC` [Compound No. 5-2], the “Test Example 1 (insecticidal effect, mortality criterion)” value in data set [1] is recorded as “A (Mortality 100%)”. The “Test Example 2 (insecticidal effect, mortality criterion)” value in data set [2] is on record as “A (Mortality 100%)”. Moreover, in data set [3], the “Test Example 3 (insecticidal effect, mortality criterion)” value is “A (Mortality 100%)”.

Turning to `CSCC(C)(C)NC(=O)c1c(I)cccc1C(=O)Nc1ccc(C(C(F)(F)F)C(F)(F)F)c(Cl)c1C` [5-66], in data set [1], the “Test Example 1 (insecticidal effect, mortality criterion)” value was “A (Mortality 100%)”. Also, in data set [2], the “Test Example 2 (insecticidal effect, mortality criterion)” value is given as “A (Mortality 100%)”. Moreover, the “Test Example 3 (insecticidal effect, mortality criterion)” value in data set [3] was “A (Mortality 100%)”.

With `C#CC(C)(C)NC(=O)c1c(I)cccc1C(=O)Nc1ccc(C(C(F)(F)F)C(F)(F)F)cc1C` [5-24], the “Test Example 1 (insecticidal effect, mortality criterion)” value in data set [1] is reported as “A (Mortality 100%)”. For the same compound, in data set [2], the “Test Example 2 (insecticidal effect, mortality criterion)” value was “C (Mortality 89-80%)”. Further, the “Test Example 3 (insecticidal effect, mortality criterion)” value in data set [3] is reported as “A (Mortality 100%)”.

As to `CSCC(C)(C)NC(=O)c1c(I)cccc1C(=O)Nc1ccc(CC(F)(F)F)cc1Cl` [5-4], the “Test Example 1 (insecticidal effect, mortality criterion)” value in data set [1] was “A (Mortality 100%)”. Moreover, the “Test Example 2 (insecticidal effect, mortality criterion)” value in data set [2] is “A (Mortality 100%)”. In data set [3], the “Test Example 3 (insecticidal effect, mortality criterion)” value is reported as “A (Mortality 100%)”.

As for `Cc1cc(C(C(F)(F)F)C(F)(F)F)cc(C)c1NC(=O)c1cccc(I)c1C(=O)NC(C)C` [5-67], the “Test Example 1 (insecticidal effect, mortality criterion)” value in data set [1] is given as “A (Mortality 100%)”. In addition, in data set [2], the “Test Example 2 (insecticidal effect, mortality criterion)” value is “E (Mortality 49% or less)”. For the same compound, the “Test Example 3 (insecticidal effect, mortality criterion)” value in data set [3] was “A (Mortality 100%)”.

Turning to `CC(C)NC(=O)c1c(I)cccc1C(=O)Nc1ccc(C(C(F)(F)F)C(F)(F)F)cc1` [5-9], in data set [1], the “Test Example 1 (insecticidal effect, mortality criterion)” value is “A (Mortality 100%)”. Moreover, in data set [2], the “Test Example 2 (insecticidal effect, mortality criterion)” value is “A (Mortality 100%)”. Moreover, the “Test Example 3 (insecticidal effect, mortality criterion)” value in data set [3] is “A (Mortality 100%)”.

`Cc1cc(C(C(F)(F)F)C(F)(F)F)ccc1NC(=O)c1cccc(I)c1C(=O)NC(C)C` [5-21]: in data set [1], the “Test Example 1 (insecticidal effect, mortality criterion)” value is listed as “A (Mortality 100%)”. Moreover, the “Test Example 2 (insecticidal effect, mortality criterion)” value in data set [2] is recorded as “A (Mortality 100%)”. In addition, in data set [3], the “Test Example 3 (insecticidal effect, mortality criterion)” value is listed as “A (Mortality 100%)”.

In the case of `Cc1cc(C(C(F)(F)F)C(F)(F)F)ccc1NC(=O)c1cccc(C(F)(F)F)c1C(=O)NC(C)(C)C[S+](C)[O-]` (stereo not drawn) [5-42], the “Test Example 1 (insecticidal effect, mortality criterion)” value in data set [1] is listed as “A (Mortality 100%)”. Besides, in data set [2], the “Test Example 2 (insecticidal effect, mortality criterion)” value is given as “A (Mortality 100%)”. Also, the “Test Example 3 (insecticidal effect, mortality criterion)” value in data set [3] was “A (Mortality 100%)”.

As for `CSCC(C)(C)NC(=O)c1c(C(=O)Nc2ccc(C(C(F)(F)F)C(F)(F)F)nc2C)cccc1[N+](=O)[O-]` [8-7], the “Test Example 1 (insecticidal effect, mortality criterion)” value in data set [1] was “A (Mortality 100%)”. The “Test Example 2 (insecticidal effect, mortality criterion)” value in data set [2] was “C (Mortality 89-80%)”. In addition, the “Test Example 3 (insecticidal effect, mortality criterion)” value in data set [3] is recorded as “E (Mortality 49% or less)”.

On to `CC(C)NC(=O)c1c(I)cccc1C(=O)Nc1ccc(C(C(F)(F)F)C(F)(F)F)cc1F` [5-50], for which the “Test Example 1 (insecticidal effect, mortality criterion)” value in data set [1] was “A (Mortality 100%)”. For the same compound, the “Test Example 2 (insecticidal effect, mortality criterion)” value in data set [2] is on record as “A (Mortality 100%)”. In data set [3], the “Test Example 3 (insecticidal effect, mortality criterion)” value was “A (Mortality 100%)”.

With `Cc1cc(C(C(F)(F)F)C(F)(F)F)ccc1NC(=O)c1cccc(I)c1C(=O)NC(C)(C)C` [5-22], the “Test Example 1 (insecticidal effect, mortality criterion)” value in data set [1] was “A (Mortality 100%)”. The “Test Example 2 (insecticidal effect, mortality criterion)” value in data set [2] is “C (Mortality 89-80%)”. In addition, in data set [3], the “Test Example 3 (insecticidal effect, mortality criterion)” value was “A (Mortality 100%)”.
